Measurements taken from PMC2736375, “Solution Behavior and Activity of a Halophilic Esterase under High Salt Concentration” (PLoS ONE, 2009).

Molecular target: T1, LipC (Haloarcula marismortui, UniProt Q5V5N6)
T1 construct: full-length, N- and C-terminal 6xHis tags, pET28a (NheI/HindIII), E. coli BL21(DE3); theoretical 34 kDa, ~50 kDa on SDS-PAGE; no signal peptide; catalytic triad Ser128, Asp224, His254; active as free monomers, mixed aggregates
T1 sequence (Q5V5N6 1-327): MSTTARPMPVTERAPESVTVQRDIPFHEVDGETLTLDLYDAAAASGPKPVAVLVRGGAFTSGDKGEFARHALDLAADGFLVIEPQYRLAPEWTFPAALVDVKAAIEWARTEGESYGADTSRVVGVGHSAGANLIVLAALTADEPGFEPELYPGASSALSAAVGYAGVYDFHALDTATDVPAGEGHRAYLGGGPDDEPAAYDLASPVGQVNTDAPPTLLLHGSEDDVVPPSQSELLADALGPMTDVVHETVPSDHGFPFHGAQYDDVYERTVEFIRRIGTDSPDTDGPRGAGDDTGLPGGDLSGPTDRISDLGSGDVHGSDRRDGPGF
Assay: p-nitrophenol release at […] nm
Type: biochemical
Conditions: 0.5 mM substrate, 50 mM Tris-HCl pH 8.5, 45 °C, 3.4 M NaCl

Row | SMILES | p-nitrophenol release at 405 nm
1 | CC(=O)Oc1ccc([N+](=O)[O-])cc1 [p-NP-C2, p-nitrophenyl acetate] | The highest specific activity of LipC was found towards the short chain p-nitrophenyl esters
2 | CCC(=O)Oc1ccc([N+](=O)[O-])cc1 [p-NP-C3] | short chain p-nitrophenyl esters of p-NP-C2 and p-NP-C3
